pEC50: −log10 of the molar value. Active and inactive are the calls of the source. No cut-off for these calls is given here.
How the values were obtained:
[1] = Metabolic stability in human liver microsomes assessed as compound metabolized at 5 uM after 15 mins by MS/MS analysis in presence of NADPH; assay type: ADME; details: read-out: Drug metabolism
[2] = biological target: T1, Metabotropic glutamate receptor 2 (Homo sapiens, UniProt Q14416); assay: Positive allosteric modulation of human mGlu2 receptor expressed in CHO cells assessed as potentiation of glutamate-induced effect incubated for 30 mins prior to [35S]GTPgamma addition measured after 30 mins relative to glutamate; assay type: functional, cell-based
Target sequence in this assay (Q14416 19-872 limits assumed): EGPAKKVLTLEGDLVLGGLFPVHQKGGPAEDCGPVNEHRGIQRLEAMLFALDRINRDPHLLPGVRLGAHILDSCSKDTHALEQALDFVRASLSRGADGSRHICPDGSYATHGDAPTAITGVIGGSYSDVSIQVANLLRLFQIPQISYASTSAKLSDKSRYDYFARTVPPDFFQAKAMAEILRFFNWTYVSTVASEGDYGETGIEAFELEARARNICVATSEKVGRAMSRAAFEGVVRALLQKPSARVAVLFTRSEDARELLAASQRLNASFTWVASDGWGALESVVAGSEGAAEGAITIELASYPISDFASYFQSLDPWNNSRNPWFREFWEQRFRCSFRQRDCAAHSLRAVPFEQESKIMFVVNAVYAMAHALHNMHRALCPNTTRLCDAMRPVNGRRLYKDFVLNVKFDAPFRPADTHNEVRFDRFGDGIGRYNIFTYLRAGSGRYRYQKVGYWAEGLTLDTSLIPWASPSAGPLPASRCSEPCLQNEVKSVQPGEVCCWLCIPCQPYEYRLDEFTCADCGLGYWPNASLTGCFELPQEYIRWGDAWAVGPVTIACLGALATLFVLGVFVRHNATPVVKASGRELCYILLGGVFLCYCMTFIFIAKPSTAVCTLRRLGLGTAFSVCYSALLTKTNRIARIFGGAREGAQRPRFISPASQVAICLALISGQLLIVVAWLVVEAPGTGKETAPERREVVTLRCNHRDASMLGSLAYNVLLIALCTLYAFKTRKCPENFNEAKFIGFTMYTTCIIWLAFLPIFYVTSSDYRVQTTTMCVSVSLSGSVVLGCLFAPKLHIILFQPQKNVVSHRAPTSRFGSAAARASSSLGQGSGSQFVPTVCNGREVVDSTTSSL

[3] = biological target: T1, Metabotropic glutamate receptor 2; assay: Positive allosteric modulation of human mGlu2 receptor expressed in CHO cells assessed as potentiation of glutamate-induced effect incubated for 30 mins prior to [35S]GTPgamma addition measured after 30 mins; assay type: functional, cell-based
Target sequence in this assay (Q14416 whole entry): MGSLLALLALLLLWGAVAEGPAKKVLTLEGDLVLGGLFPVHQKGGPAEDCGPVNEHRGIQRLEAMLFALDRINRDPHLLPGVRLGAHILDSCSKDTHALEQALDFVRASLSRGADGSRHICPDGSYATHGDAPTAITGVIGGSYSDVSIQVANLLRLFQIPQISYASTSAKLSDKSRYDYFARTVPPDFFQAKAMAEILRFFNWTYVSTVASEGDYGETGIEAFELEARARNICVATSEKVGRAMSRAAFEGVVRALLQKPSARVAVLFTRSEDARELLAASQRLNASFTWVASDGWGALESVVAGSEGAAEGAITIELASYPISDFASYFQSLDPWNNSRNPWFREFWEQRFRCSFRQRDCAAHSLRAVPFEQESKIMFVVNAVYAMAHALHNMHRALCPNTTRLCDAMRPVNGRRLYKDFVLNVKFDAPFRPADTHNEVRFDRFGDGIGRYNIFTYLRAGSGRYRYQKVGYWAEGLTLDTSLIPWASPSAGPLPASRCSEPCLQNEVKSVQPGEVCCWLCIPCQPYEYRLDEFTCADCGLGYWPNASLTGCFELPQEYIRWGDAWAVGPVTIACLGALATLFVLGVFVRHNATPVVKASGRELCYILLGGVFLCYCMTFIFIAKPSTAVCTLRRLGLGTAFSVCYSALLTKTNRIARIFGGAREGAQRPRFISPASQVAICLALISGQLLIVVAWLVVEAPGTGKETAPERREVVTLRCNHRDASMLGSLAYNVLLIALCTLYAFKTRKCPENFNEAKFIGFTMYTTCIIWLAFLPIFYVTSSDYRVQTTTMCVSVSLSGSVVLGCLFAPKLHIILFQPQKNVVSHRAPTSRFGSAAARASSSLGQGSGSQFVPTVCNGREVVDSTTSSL

[4] = Metabolic stability in rat liver microsomes assessed as compound metabolized at 5 uM after 15 mins by MS/MS analysis in presence of NADPH; assay type: ADME; details: read-out: Drug metabolism
[5] = biological target: hERG (KCNH2) (Homo sapiens, UniProt Q12809); assay: Inhibition of human ERG channel transfected in HEK293 cells at 3 uM by patch clamp technique; assay type: cell-based; details: HEK293 cells transfected with human ERG channel
hERG (KCNH2), sequence (Q12809 whole entry): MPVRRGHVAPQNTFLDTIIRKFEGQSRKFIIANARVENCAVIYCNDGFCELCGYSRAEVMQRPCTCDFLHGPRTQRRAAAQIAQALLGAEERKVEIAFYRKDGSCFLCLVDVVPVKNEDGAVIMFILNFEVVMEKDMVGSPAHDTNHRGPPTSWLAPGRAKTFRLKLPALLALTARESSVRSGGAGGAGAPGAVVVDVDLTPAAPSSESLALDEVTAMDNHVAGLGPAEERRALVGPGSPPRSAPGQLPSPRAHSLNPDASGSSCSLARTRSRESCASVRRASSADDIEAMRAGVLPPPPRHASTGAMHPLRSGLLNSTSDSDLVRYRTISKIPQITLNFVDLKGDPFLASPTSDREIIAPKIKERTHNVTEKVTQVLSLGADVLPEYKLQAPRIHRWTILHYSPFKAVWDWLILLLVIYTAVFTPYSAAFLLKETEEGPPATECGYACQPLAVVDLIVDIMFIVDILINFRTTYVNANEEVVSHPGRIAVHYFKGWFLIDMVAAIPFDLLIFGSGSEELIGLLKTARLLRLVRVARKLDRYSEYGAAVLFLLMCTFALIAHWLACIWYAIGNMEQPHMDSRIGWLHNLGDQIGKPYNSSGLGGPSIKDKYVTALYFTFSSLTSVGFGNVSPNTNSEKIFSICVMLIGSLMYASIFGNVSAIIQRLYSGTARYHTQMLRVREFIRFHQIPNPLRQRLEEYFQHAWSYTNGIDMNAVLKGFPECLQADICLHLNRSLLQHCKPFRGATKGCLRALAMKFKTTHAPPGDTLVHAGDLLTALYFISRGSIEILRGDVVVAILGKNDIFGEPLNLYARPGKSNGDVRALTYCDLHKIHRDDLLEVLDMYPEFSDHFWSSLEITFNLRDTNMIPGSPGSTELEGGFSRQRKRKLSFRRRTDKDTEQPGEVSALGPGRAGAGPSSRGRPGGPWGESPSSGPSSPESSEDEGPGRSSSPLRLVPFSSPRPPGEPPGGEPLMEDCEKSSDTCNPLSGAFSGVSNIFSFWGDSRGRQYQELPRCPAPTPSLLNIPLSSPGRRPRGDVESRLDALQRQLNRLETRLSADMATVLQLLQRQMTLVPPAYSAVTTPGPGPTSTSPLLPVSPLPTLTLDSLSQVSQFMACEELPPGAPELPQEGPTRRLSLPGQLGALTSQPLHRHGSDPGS

[6] = test system: Rattus norvegicus; assay: Positive allosteric modulation of mGlu2 receptor in Sprague-Dawley rat sleep-wake EEG paradigm model assessed as effect on active wake stage at 3 mg/kg, po after 4 hrs by electroencephalogram analysis; assay type: functional, organism-based; parameters: dose 3 mg/kg
[7] = test system: Rattus norvegicus; assay: Positive allosteric modulation of mGlu2 receptor in Sprague-Dawley rat sleep-wake EEG paradigm model assessed as effect on deep sleep stage at 3 mg/kg, po after 4 hrs by electroencephalogram analysis; assay type: functional, organism-based; parameters: dose 3 mg/kg
[8] = Oral bioavailability in Sprague-Dawley rat at 10 mg/kg; assay type: ADME, organism-based; details: in vivo
[9] = Ratio of drug level in brain to plasma in Swiss mouse at 10 mg/kg, sc after 1 hr; assay type: ADME, organism-based; parameters: dose 10 mg/kg, route subcutaneous; details: brain and plasma, read-out: BPR
[10] = test system: Rattus norvegicus; assay: Positive allosteric modulation of mGlu2 receptor in Sprague-Dawley rat sleep-wake EEG paradigm model assessed as reduction in REM sleep at 3 mg/kg, po after 4 hrs by electroencephalogram analysis; assay type: functional, organism-based; parameters: dose 3 mg/kg
[11] = Cmax in Sprague-Dawley rat at 10 mg/kg, po; assay type: ADME, organism-based; parameters: dose 10 mg/kg, route oral; details: in vivo
[12] = test system: Rattus norvegicus; assay: Positive allosteric modulation of mGlu2 receptor in po dosed Sprague-Dawley rat assessed effect on sleep-wake EEG paradigm after 20 hrs by electroencephalogram analysis; assay type: functional; details: for minimal effective dose: Rattus norvegicus, Sprague-Dawley, po, 20 h, read-out: MED
[13] = AUC (0 to infinity) in Sprague-Dawley rat at 10 mg/kg, po; assay type: ADME, organism-based; parameters: time infinity, dose 10 mg/kg, route oral; details: plasma
[14] = test system: Rattus norvegicus; assay: Positive allosteric modulation of mGlu2 receptor in Sprague-Dawley rat sleep-wake EEG paradigm model assessed as effect on passive wake stage at 3 mg/kg, po after 4 hrs by electroencephalogram analysis; assay type: functional, organism-based; parameters: dose 3 mg/kg
[15] = Clearance in Sprague-Dawley rat at 2.5 mg/kg, iv; assay type: ADME, organism-based; parameters: dose 2.5 mg/kg, route intravenous; details: in vivo
[16] = Tmax in Sprague-Dawley rat at 2.5 mg/kg, iv; assay type: ADME, organism-based; parameters: dose 2.5 mg/kg, route intravenous; details: in vivo
[17] = Elimination half life in Sprague-Dawley rat at 2.5 mg/kg, iv; assay type: ADME, organism-based; parameters: dose 2.5 mg/kg, route intravenous; details: in vivo, read-out: beta t1/2 (converted)
[18] = test system: Rattus norvegicus; assay: Positive allosteric modulation of mGlu2 receptor in Sprague-Dawley rat sleep-wake EEG paradigm model assessed as effect on intermediate state at 3 mg/kg, po after 4 hrs by electroencephalogram analysis; assay type: functional, organism-based; parameters: dose 3 mg/kg
[19] = test system: Rattus norvegicus; assay: Positive allosteric modulation of mGlu2 receptor in Sprague-Dawley rat sleep-wake EEG paradigm model assessed as effect on light sleep stage at 3 mg/kg, po after 4 hrs by electroencephalogram analysis; assay type: functional, organism-based; parameters: dose 3 mg/kg

SMILES	metabolised at 0.25 h, 5 µM [1] [%]	Emax [2] [%]	pEC50 [3]	metabolised at 0.25 h, 5 µM [4] [%]	further results
CC(C)CCn1ccc(N2CCN(c3ccccn3)CC2)c(C#N)c1=O	51	304	5.51	54	
N#Cc1c(N2CCC(c3ccccc3)CC2)ccn(CC2CC2)c1=O	25	309	6.82	44	inhibition at 3 µM [5]: 58%; Activity [6]: inactive; Activity [7]: inactive; bioavailability [8]: 51%; Kp at 1 h [9]: 0.3; Activity [10]: Active; Cmax [11]: 1410 ng/mL; MEC [12]: 420 ng/mL; minimal effective dose [12]: 3 mg/kg; AUC(0-inf) [13]: 4350 ng·h/mL; Activity [14]: inactive; clearance [15]: 18 mL/min/kg; Tmax [16]: 30 min; half-life [17]: 126 min; Activity [18]: inactive; Activity [19]: inactive
O=c1c(Cl)c(N2CCC(c3ccccc3)CC2)ccn1CC1CC1	17	259	6.77	30	inhibition at 3 µM [5]: 51%; Activity [6]: inactive; Activity [7]: inactive; bioavailability [8]: 34%; Kp at 1 h [9]: 0.9; Activity [10]: inactive; Cmax [11]: 986 ng/mL; MEC [12]: >986 ng/mL; minimal effective dose [12]: > 10 mg/kg; AUC(0-inf) [13]: 2310 ng·h/mL; Activity [14]: inactive; clearance [15]: 24 mL/min/kg; Tmax [16]: 30 min; half-life [17]: 210 min; Activity [18]: inactive; Activity [19]: inactive
CC(C)CCn1ccc(-c2ccccc2)c(C#N)c1=O	36	135		100	
CC(C)Cn1ccc(N2CCC(c3ccccc3)CC2)c(C#N)c1=O	37	316	6.55	47	
CC(C)CCn1ccc(N(C)Cc2ccccc2)c(C#N)c1=O	69	249	4.97	100	
CC(C)CCn1ccc(N2CCC(c3ccccc3)CC2)c(C#N)c1=O	28	268	6.99	97	
CC(C)CCn1ccc(N2CCc3ccccc3C2)c(C#N)c1=O	74	310	6.06	100	
CC(C)CCn1ccc(N2CCCCC2)c(C#N)c1=O	67	185	4.50	100	
COc1ccccc1C1CCN(c2ccn(CC3CC3)c(=O)c2C#N)CC1	53	265	7.46	68	inhibition at 3 µM [5]: 65%
N#Cc1c(N2CCC(c3cccc(F)c3)CC2)ccn(CC2CC2)c1=O	35	268	6.85	37	inhibition at 3 µM [5]: 87%
CC(C)CCn1ccc(N2CCN(c3ccccc3)CC2)c(C#N)c1=O	50	118	6.18	90	
N#Cc1c(N2CCC(c3ccccc3)CC2)ccn(CCC2CC2)c1=O	50	316	6.75	61	
N#Cc1c(N2CCC(c3ccccc3)CC2)ccn(CCCC(F)(F)F)c1=O	18	302	6.45	43	
COc1ccc(C2CCN(c3ccn(CC4CC4)c(=O)c3C#N)CC2)cc1	76	257	7.01	57	

— ChEMBL document CHEMBL3352578 (J Med Chem, 2014)
